Experiments:
Format in all cases: in vivo
[1] = system: diamondback moth (Plutella xylostella); assay: Test Method 4: sprayed cabbage seedling, second-instar larvae of diamondback moth; conditions: 120 h, spray 20 mL/seedling, after 5 days
Experimental: (§1) Each test compound is made to a formulation according to a similar method to that described in the Formulation Example 1, and thereto is added water containing 0.03 v/v % of Shindain (registered trademark) to prepare a diluted solution containing a prescribed concentration of the test compound.
(§2) Cabbage (Brassicae oleracea) seedling (on the developmental stage of the second to third true leaf) is planted in a container, and the diluted solutions are sprayed to the seedling at a ratio of 20 mL/seedling. Thereafter, the aerial part of the seedling is cut out and then is installed into a container in which a filter paper is placed at the bottom of the container. Five of second-instar larvae of diamondback moth (Plutella xylostella) are released into the container. After 5 days, the number of the surviving insects is counted, and the mortality of insects is calculated by the following equation.

[2] = system: diamondback moth (Plutella xylostella); assay: Test Method 10: sprayed cabbage seedling, third-instar larvae of diamondback moth (formulation per Formulation Example 5); conditions: 120 h, spray 20 mL/seedling, after 5 days
Experimental: (§3) Each test compound is made to a formulation according to a similar method to that described in the Formulation Example 5, and thereto is added water containing 0.03 v/v % of Shindain (registered trademark) to prepare a diluted solution containing a prescribed concentration of the test compound.
(§4) Cabbage (Brassicae oleracea) seedling (on the developmental stage of the third to fourth true leaf) is planted in a container, and the diluted solutions are sprayed to the seedling at a ratio of 20 mL/seedling. Thereafter, ten of third-instar larvae of diamondback moth (Plutella xylostella) are released. After 5 days, the number of the surviving insects is counted, and the mortality of insects is calculated by the following equation.

[3] = system: German cockroach (Blattella germanica); assay: Test Method 6: coated glass vial, German cockroach male adults; conditions: 40 mg/m^2 coated vial, 3 days
Experimental: An acetone solution which is adjusted to 800 ppm of each test compound is poured into a 50 mL glass vial, and the test compound is coated uniformly on inner face of the vial so as to 40 mg/m^2 of the test compound treated, and the vial is then dried.
5 German cockroach (Blattella germanica) male adults are released into the treated vial, and the vial is then covered with lid. After the prescribed time, the state of the German cockroach is examined, and the mortality is calculated by the following equation.

[4] = system: housefly (Musca domestica); assay: Test Method 8: coated glass vial, housefly female adults; conditions: 40 mg/m^2 coated vial, 1 day
Experimental: An acetone solution which is adjusted to 800 ppm of each test compound is poured into a 20 mL glass vial, and the test compound is coated uniformly on inner face of the vial so as to 40 mg/m^2 of the test compound treated, and the vial is then dried.
5 housefly (Musca domestica) female adults are released into the treated vial, and the vial is then covered with lid. After the prescribed time, the state of the housefly is examined, and the mortality is calculated by the following equation.

[5] = system: common cutworm (Spodoptera litura); assay: Test Method 9: sprayed cabbage seedling, third-instar larvae of common cutworm (formulation per Formulation Example 5); conditions: 144 h, spray 20 mL/seedling, after 6 days
Experimental: as §3
as §4, with “common cutworm (Spodoptera litura)” for “diamondback moth (Plutella xylostella)”, “6” for “5”

[6] = system: Western corn rootworm (Diabrotica virgifera virgifera); assay: Test Method 5: corn seedling dip, second-instar larvae of Western corn rootworm; conditions: 120 h, corn seedling immersed 30 seconds, after 5 days
Experimental: Each 1 mg of the test compounds is dissolved in 50 μL of a mixed solution consisting of 5% of polyoxyethylene sorbitan mono-cocoate and 95% of acetone by volume ratio. Thereto is added water containing 0.03% by volume of Shindain (registered trademark) to prepare a diluted solution containing a prescribed concentration of the test compound.
A young seedling of corn (Zea mays) is immersed into the diluted solution for 30 seconds. Thereafter, two seedlings are installed in a plastic petri dish ([…]), and 10 of second-instar larvae of Western corn rootworm (Diabrotica virgifera virgifera) are released into the dish. After 5 days, the number of the dead insects is counted, and the mortality of insects is calculated by the following equation.

[7] = system: common cutworm (Spodoptera litura); assay: Test Method 3: sprayed cabbage seedling, second-instar larvae of common cutworm; conditions: 120 h, spray 20 mL/seedling, after 5 days
Experimental: as §1
as §2, with “common cutworm (Spodoptera litura)” for “diamondback moth (Plutella xylostella)”

[8] = system: cotton aphids (Aphis gossypii); assay: Test Method 2: soil drench of cucumber seedling, cotton aphids released after 7 days; conditions: drench 5 mL/seedling, examined after 6 days
Experimental: Each test compound is made to a formulation according to a similar method to that described in the Formulation Example 5, and thereto is added water to prepare a diluted solution containing a prescribed concentration of the test compound. Cucumber (Cucumis sativus) seedling (on the developmental stage of the second true leaf) is planted in a container, and the diluted solutions are drenched to the bottom of the seedling at a ratio of 5 mL/seedling. After 7 days, approximately 30 cotton aphids (Aphis gossypii) (all developmental stages of life) are released onto the leaf of the seedling. After 6 days, the number of the surviving insects is examined and the controlling value is calculated by the following equation. [formula] wherein the symbols in the formula represent the following descriptions. • Cb: Number of the test insects in untreated group; • Cai: Number of the surviving insects at the time of the investigation in untreated group; • Tb: Number of the test insects in treated group; • Tai: Number of the surviving insects at the time of the investigation in treated group; Here the “untreated group” represents a group where the similar treatment procedure to that of the treated group except not using the test compound is done.

CN(C)S(=O)(=O)c1cc(Br)cnc1-n1nc2ccc(C(F)(F)F)cn2c1=O [Present compound 1]
mortality at 500 ppm [1]: ≥ 80%
mortality at 200 ppm [2]: ≥ 80%

CNS(=O)(=O)c1c(-c2nc3cc(C(F)(F)F)cnc3[nH]2)nc2ccc(C(F)(F)F)cn12 [Present compound 3]
mortality at 500 ppm [1]: ≥ 80%
mortality [3]: 100%
mortality at 50 ppm [2]: ≥ 80%
mortality at 200 ppm [2]: ≥ 80%
mortality [4]: 100%
mortality at 200 ppm [5]: ≥ 80%
mortality at 200 ppm [6]: 100%
mortality at 500 ppm [7]: ≥ 80%

CN(C)S(=O)(=O)c1c(-n2nc3ccc(C(F)(F)F)cn3c2=O)nc2ccc(Br)cn12 [Present compound 2]
controlling value ([8]; 250 ppm): 100%
controlling value ([8]; 1000 ppm): 100%
mortality at 500 ppm [1]: ≥ 80%
mortality at 50 ppm [2]: ≥ 80%
mortality at 200 ppm [2]: ≥ 80%
mortality at 200 ppm [5]: ≥ 80%
mortality at 500 ppm [7]: ≥ 80%

Reference: patent US20260101898A1, “SULFONAMIDE COMPOUND AND HARMFUL-ARTHROPOD CONTROLLING COMPOSITION CONTAINING SAME” (SUMITOMO CHEMICAL COMPANY, LIMITED, priority 2022, published 2026)
